{"source": "patent US20240366616A1", "about": "“SOLUBLE PHARMACEUTICAL COMPOSITIONS COMPRISING SALTS OF DISUBSTITUTED 1, 2, 4-TRIAZINE COMPOUND” (Mineralys Therapeutics, Inc., priority 2021, published 2024)", "assay_type_in_all_cases": "physicochemical", "key": {"[1]": {"experiment": "Powder x-ray diffraction of ALDSI stored with a metal salt (croscarmellose Na)", "settings": "3 days storage with croscarmellose Na, 60° C./75% RH", "description": "FIG. 1: Powder x-ray diffraction peaks detected from MLS-101 after 3 days of storage with a metal salt (croscarmellose Na) (storage conditions: 60° C./75% RH).\nALDSI-derived peaks were detected after 3 days of storage of ALDSI with a metal salt (croscarmellose Na). (storage conditions: 60° C./75% RH)"}, "[2]": {"experiment": "Stability test of 10% API capsules: purity test (related substances)", "settings": "Initial", "description": "Metal salt-free excipients were selected.\nD-Mannitol and talc were mixed and sieved. The API was added to the sieved mixture, blended, sieved, and filled in HPMC capsules."}, "[3]": {"experiment": "Study II of tablets: purity test (related substances) after storage", "settings": "Initial", "excerpt": "API granules, a disintegrant, and lubricants were mixed in a polyethylene bag. After confirming pressure dependency, the mixture was subjected to sequential tableting (900 kilogram of force, i.e. about 8826 Newtons)."}, "[4]": {"experiment": "Dissolution test of ALDSI (JP Paddle Method, JP Second Fluid) and XRPD after storage or processing of API alone", "description": "Storage conditions: 25° C./60% RH, 40° C./75% RH, and 60° C./75% RH (relative humidity) in an open container\nSampling time points: 3 days and 1 week\nTest method: JP Apparatus for Paddle Method (Apparatus 2)\nRevolutions: 50 rpm for 0-30 min, and 250 rpm for 30 min.\nDissolution medium: JP Second Fluid for dissolution test (A mixture of phosphate buffer solution (pH 6.8) and water (1:1), as described in the Japanese Pharmacopoeia.)"}, "[5]": {"experiment": "Water solubility of API free base"}}, "data": [{"smiles": "CC(=O)N[C@H]1CC[C@H](NC(=O)CN2CCN(c3nncc(-c4ccc(C)cc4)n3)CC2)CC1", "note": "[ALDSI]", "values": [{"measurement": "Propensity toward disproportionation in the presence of a metal salt", "setting": "[1]", "value": "high propensity toward disproportionation"}, {"measurement": "Individual related substances RRT 0.95", "setting": "[2]", "value": 0.10, "unit": "%"}, {"measurement": "Individual related substances RRT 0.96", "setting": "[2]", "value": 0.04, "unit": "%"}, {"measurement": "Individual related substances RRT 0.98", "setting": "[2]", "value": 0.11, "unit": "%"}, {"measurement": "Individual related substances RRT 1.18", "setting": "[2]", "value": 0.47, "unit": "%"}, {"measurement": "Individual related substances RRT 1.19", "setting": "[2]", "value": 0.03, "unit": "%"}, {"measurement": "Total related substances", "setting": "[2]", "value": 0.75, "unit": "%"}, {"measurement": "Individual related substances RRT 0.81", "setting": "[3]", "value": 0.11, "unit": "%"}, {"measurement": "Individual related substances RRT 0.85", "setting": "[3]", "value": 0.02, "unit": "%"}, {"measurement": "Individual related substances RRT 1.09", "setting": "[3]", "value": 0.02, "unit": "%"}, {"measurement": "Individual related substances RRT 1.13", "setting": "[3]", "value": 0.02, "unit": "%"}, {"measurement": "Individual related substances RRT 1.35", "setting": "[3]", "value": 0.02, "unit": "%"}, {"measurement": "Individual related substances RRT 1.43", "setting": "[3]", "value": 0.02, "unit": "%"}, {"measurement": "Individual related substances RRT 1.69", "setting": "[3]", "value": 0.02, "unit": "%"}, {"measurement": "Total related substances", "setting": "[3]", "value": 0.23, "unit": "%"}, {"measurement": "Dissolution differences among samples", "setting": "[4]; API alone compressed at 300, 600, and 900 kilograms of force", "value": "no differences in dissolution among samples"}, {"measurement": "Dissolution differences among samples", "setting": "[4]; API alone ground for 1, 3, 20, and 30 min", "value": "no differences in dissolution among samples"}, {"measurement": "Dissolution differences among samples", "setting": "[4]; API alone kneaded with large, middle, and small amounts of water", "value": "no differences in dissolution among samples"}, {"measurement": "Dissolution delay / new XRPD peaks after storage", "setting": "[4]; API alone, 25° C./60% RH, 40° C./75% RH, 60° C./75% RH open container, 3 days and 1 week", "value": "no delay of dissolution or appearance of new peaks on XRPD"}, {"measurement": "Dissolution changes over time", "setting": "[4]; compressed API alone stored at 60° C./75% RH for 3 days or 1 week", "value": "no changes in dissolution over time"}, {"measurement": "Dissolution changes over time", "setting": "[4]; ground API alone stored at 60° C./75% RH for 3 days or 1 week", "value": "no changes in dissolution over time"}]}, {"smiles": "CC(=O)N[C@H]1CC[C@H](NC(=O)CN2CCN(c3nncc(-c4ccc(C)cc4)n3)CC2)CC1", "note": "[API free base]", "values": [{"measurement": "Solubility in water", "setting": "[5]", "value": "poorly soluble in water"}]}]}
